One series concerns bile duct cancer. As to conditions: cited from earlier work.
Series [1] deals with 624 mel cells and 928 mel cells. As to the kind of experiment: IL-10 production by melanoma cells (ELISA of culture supernatant). As to conditions: 0.2 μM, 24 hr, FIG. 5. It is filed as cell-based, human. Here is the method: IL-10 Production Suppressive Action of CBP/Catenin Inhibitor (Compound 1)
624 mel cells and 928 mel cells were used, which are cell lines (melanoma) established from human malignant melanoma patients by US NIH. These cells have been activated and have IL-10 production ability.
In a culture medium (10% FCS-containing RPMI1640, penicillin and streptomycin added), respective melanoma cells were seeded in a 6-well plate at a concentration of 1×10^5 cells/2 ml/well. After seeding, compound 1 was added to a given concentration and the cells were cultured for 24 hr. After 24 hr, the culture supernatant was recovered, and the concentration of IL-10 in the supernatant was measured. For the measurement of IL-10 concentration, Human IL10 OptEIA ELISA set (BD, #555157) was used.
On the technique in general: ELISA stands for enzyme-linked immunosorbent assay.

The test system is the same in series [2]. As to the kind of experiment: Influence on proliferation of melanoma cells. The format is cell-based, human. The settings on record: 24 hr, any cell.
For series [3] the following is noted: cited from earlier work.
The subject of series [4] is human breast cancer cell line (MDA-MB-231). Description: Side population (cancer stem cell) fraction of MDA-MB-231 after compound treatment. It is filed as cell-based. As to conditions: 0.3 μM in culture medium, after 4 days; untreated 1.6% SP cells. Here is the method:
To a side population fraction (cancer stem cells were considered to have been concentrated) obtained by two-dimensional cell sorting of human breast cancer cell line (MDA-MB-231) with Hoechst Blue and Hoechst Red was added 0.3 μM CBP/catenin inhibitor (compound 2) in the culture medium. After 4 days, the side population fraction almost disappeared (when untreated with medicament, 1.6% SP cells were detected, whereas 0% was detected in compound 2 treatment group), and the cancer stem cells were considered to have differentiated (FIG. 3).

Series [5] relates to spontaneous breast cancer of transgenic mouse (MMTV-Wnt-1). Description: Tumor volume in mice serially transplanted with spontaneous breast cancer of transgenic mouse (MMTV-Wnt-1). The format is in vivo, mouse (C57BL/6J). As to conditions: compound A 50 mg/kg twice per day oral, antibody 10 mg/kg twice per week i.p. An excerpt: Effect of combined use of CBP/catenin inhibitor (compound A) and anti-mouse PD-1 (CD279) antibody in animal model serially transplanted with subcultured spontaneous breast cancer of transgenic mouse (MMTV-Wnt-1)
Spontaneous breast cancer of transgenic mouse (MMTV-Wnt-1), in which Wnt-1 had been locally expressed in mammary gland epithelial cells, was harvested, and serially transplanted to the background line mouse (C57BL/6J) with trocar. When the serially transplanted tumor became about 1.5 g, it was isolated, processed into fragments of about 30 mg, and subcutaneously transplanted to the side of the body of 5 mice (C57BL/6J) per each group. Engraftment of the tumor was confirmed, and compound A (50 mg/kg, twice per day, 21 days, oral administration) and anti-mouse PD-1 antibody (Clone: RMP1-14, BioXCell) (10 mg/kg, twice per week, 3 weeks, intraperitoneal administration) were each administered singly or in combination.
With the day of the start of administration as day 0, the major axis and the minor axis of the tumor developed in each mouse were measured by Digimatic Caliper (Mitsutoyo) on days 4, 7, 11, 14, 18, and 21.
The tumor volume was calculated according to the following formula. tumor volume TV(mm^3)=tumor major axis(mm)×tumor minor axis^2(mm^2)/2

Consider five compounds from US11369623B2, “Anticancer combination of a CBP/catenin inhibitor and an immune checkpoint inhibitor” (PRISM Pharma Co., Ltd., priority 2015, dated 2022).

`O=C1[C@H](Cc2ccc(O)cc2)N2C(=O)CCN(C(=O)NCc3ccccc3)[C@H]2CN1Cc1cccc2ccccc12` [ICG-001, (6S,9aS)-N-benzyl-6-[(4-hydroxyphenyl)methyl]-8-(naphthalen-1-ylmethyl)-4,7-dioxo-3,6,9,9a-tetrahydro-2H-pyrazino[1,2-a]pyrimidine-1-carboxamide]: the “proliferation inhibitory effect in animal model” value in the series on bile duct cancer is listed as “strong proliferation inhibitory effect”.

On to `C[C@H]1[C@H]2N(C(=O)CN(C)N2C(=O)NCc2ccccc2)[C@@H](Cc2ccc(OP(=O)(O)O)cc2)C(=O)N1Cc1cccc2cccnc12` [compound 1, 4-(((6S,9S,9aS)-1-(benzylcarbamoyl)-2,9-dimethyl-4,7-dioxo-8-(quinolin-8-ylmethyl)octahydro-1H-pyrazino[2,1-c][1,2,4]triazin-6-yl)methyl)phenyl dihydrogen phosphate], for which the “production of IL-10” value in series [1] is on record as “production of IL-10 was suppressed”. The “influence on the proliferation” value in series [2] (0.2 μM) is “an influence on the proliferation was not confirmed”; in series [2] (1 μM), “an influence on the proliferation was confirmed”.

For the compound `C[C@H]1[C@H]2N(C(=O)CN(C)N2C(=O)NCc2ccccc2)[C@@H](Cc2ccc(OP(=O)(O)O)cc2)C(=O)N1Cc1cccc2cccnc12` [PRI-724], in series [3], the “toxicity in human compared with conventional Wnt inhibitors having other mechanisms” value is on record as “clearly less toxic in human than conventional Wnt inhibitors”.

For `C[C@H]1[C@H]2N(C(=O)CN(C)N2C(=O)NCc2ccccc2)[C@@H](Cc2ccc(O)cc2)C(=O)N1Cc1cccc2cccnc12` [compound 2, (6S,9S,9aS)-N-benzyl-6-(4-hydroxybenzyl)-2,9-dimethyl-4,7-dioxo-8-(quinolin-8-ylmethyl)octahydro-1H-pyrazino[2,1-c][1,2,4]triazine-1-carboxamide], the “SP cells detected (side population fraction)” value in series [4] is 0%.

For `C=CCN1CC(=O)N2[C@@H](Cc3ccc(O)cc3F)C(=O)N(Cc3cccc(N4CC(N5CCN(CC)CC5)C4)n3)C[C@@H]2N1C(=O)NCc1ccccc1` [compound A, (6S,9aS)-N-benzyl-8-((6-(3-(4-ethylpiperazin-1-yl)azetidin-1-yl)pyridin-2-yl)methyl)-6-((2-fluoro-4-hydroxyphenyl)methyl)-4,7-dioxo-2-(prop-2-en-1-yl)-octahydro-1H-pyrazino[2,1-c][1,2,4]triazine-1-carboxamide], the “tumor volume TV, Mean ± SEM” value in series [5] (Day 0) was determined as 75.3 ± 9.2 mm^3; in series [5] (Day 4), 83.2 ± 8.5 mm^3; in series [5] (Day 7), 90.5 ± 22.3 mm^3; in series [5] (Day 11), 123.1 ± 40.5 mm^3; in series [5] (Day 14), 140.4 ± 45.1 mm^3; in series [5] (Day 18) it was 221.6 ± 47.9 mm^3. Also, the “tumor volume TV, Mean ± SEM” value in series [5] (Day 21) is recorded as 237.7 ± 41.2 mm^3.
